Laboratory results taken from patent publication US10039715B2, “Liposomal formulation of nonglycosidic ceramides and uses thereof” (LUDWIG INSTITUTE FOR CANCER RESEARCH LTD., priority 2010, dated 2018).

Experiments:
[1] = system: murine invariant natural killer cells (iNKT); assay: Activation of iNKT cells in splenocyte culture, IFNγ ELISA; format: cell-based, mice; details: splenocytes cultured 72 hours with material (titrating amounts 10 μg/ml, 1 μg/ml, 100 ng/ml; concentration of the tabulated values not stated), supernatant ELISA
Procedure: This Example illustrates ability of the threitolceramide-containing liposomes to activate murine invariant natural killer cells (iNKT) and human cells, as measured by IFNγ release.
Splenocytes were prepared from either wild type (WT) or CD1d^−/− (NKT cell deficient) mice and cultured in the presence of titrating amounts (10 μg/ml, 1 μg/ml, 100 ng/ml) of non-glycosidic ceramide containing liposomes (EPC:DDAB:TC(10); EPC:EPG:TC(2); EPC:EPG:TC(5); EPC:EPG:TC(10) and EPC:CHOL:TC(10)), control liposome (EPC:EPG), soluble threitolceramide or soluble α-GalCer for 72 hours. Soluble threitolceramide and soluble α-GalCer were prepared by dissolution in a chloroform/methanol/water solution (10:10:3) at 10 mg/mL. The resulting solution was diluted to a final volume of about 200 μg/mL using vehicle solution comprised of NaCl (about 150 mM) and polyoxyethylene (20) sorbitan monolaurate (i.e., Tween 20, 0.5%). Supernatants were removed from cultures and the amount of IFNγ produced by the cells was quantified by ELISA. Briefly, ELISA plates were coated with 1D1K antibody (Mabtech) and left overnight at 4° C. The plates were washed with 0.05% Tween 20 in PBS (v/v). To eliminate any non-specific antigen binding, the plates were coated (i.e. blocked) with 200 μL of 10% FCS in PBS (v/v) and incubated for 2 h at 37° C. […]

[2] = system: dendritic cell (DC); assay: DC maturation in vivo, CD86 and CD40 expression on spleen DC by flow cytometry; set-up: species or system mice; details: median fluorescent intensity, spleen DC 18 hours after 1 μg intravenous injection
Procedure: (§1) This example illustrates the in vivo effect of threitolceramide-containing liposomes on dendritic cell (DC) maturation, as measured by CD86 and CD40 expression, and iNKT cell activation, as measured by IL-4 and IFNγ release.
(§2) WT (n=3) and CD1d^−/− (n=1) mice were administered 1 μg of liposomes (EPC:DDAB:TC(10); EPC:EPG:TC(2); EPC:EPG:TC(5); EPC:EPG:TC(10) and EPC:CHOL:TC(10)) or control liposome (EPC:EPG), soluble threitolceramide or soluble α-GalCer by intravenous injection.
18 hours post-injection, the spleens of the mice were harvested and the phenotype of DC maturation was examined by flow cytometry as determined by the median fluorescent intensity (MFI) of CD86 and CD40 expression.

[3] = system: iNKT cell; assay: Activation of NKT cells in vivo, serum IL-4 and IFN-γ by ELISA; set-up: species or system mice; details: 1 μg intravenous injection; for IL-4 (serum): 2 hours; for INFγ (serum): 18 hours
Procedure: as §1, §2
Serums were obtained by tail venipuncture 2 and 18 hours post-injection to detect IL-4 and IFN-γ levels by ELISA.

Row | SMILES | IFNγ [1] | CD40 (DC maturation) Median [2] | CD86 (DC maturation) Median [2] | IL-4 (serum) [3] | INFγ (serum) [3]
1 | CCCCCCCCCCCCCCCCCCCCCCCCCC(=O)N[C@@H](CO[C@H]1O[C@H](CO)[C@H](O)[C@H](O)[C@H]1O)[C@H](O)[C@H](O)CCCCCCCCCCCCCC [Soluble α-GalCer, α-Galactosylceramide] | 9.21 ng/mL | 39.1 | 91.6 | 0.83 ng/mL | 8.47 ng/mL
2 | CCCCCCCCCCCCCCCCCCCCCCCCCC(=O)N[C@@H](COC[C@H](O)[C@@H](O)CO)[C@H](O)[C@H](O)CCCCCCCCCCCCCC [Soluble TC, threitolceramide] | 3.77 ng/mL | 28.9 | 60.1 | 0.12 ng/mL | 0.99 ng/mL
